Results on 14 molecules are retold here after ChEMBL document CHEMBL5131426, “Novel hydrazone derivatives of N-amino-11-azaartemisinin with high order of antimalarial activity against multidrug-resistant Plasmodium yoelii nigeriensis in Swiss mice via intramuscular route” (Bioorg Med Chem Lett, 2022).

In data set [1] the test system is Plasmodium yoelii nigeriensis. The data set can be described thus: Antimalarial activity against multidrug-resistant Plasmodium yoelii nigeriensis infected in Swiss mouse assessed as inhibition of parasitemia at 12 mg/kg, IM for 4 days measured on day 4 relative to control. The class given is functional. As to conditions: 96 h, time 4 day.
Data set [2] in a line: Toxicity in Swiss mouse infected with multidrug-resistant Plasmodium yoelii nigeriensis assessed as animal dead at 12 mg/kg, IM for 4 days measured on day 28. As to conditions: in vivo, 96 h, time 4 day. The class given is organism-based.
The test system of data set [3] is Plasmodium yoelii nigeriensis. Put plainly: Antimalarial activity against multidrug-resistant Plasmodium yoelii nigeriensis infected in Swiss mouse assessed as inhibition of parasitemia at 24 mg/kg, po for 4 days measured on day 4 relative to control. The class given is functional. As to conditions: 96 h, time 4 day.
Data set [4] is described as follows: Toxicity in Swiss mouse infected with multidrug-resistant Plasmodium yoelii nigeriensis assessed as animal survival at 12 mg/kg, IM for 4 days measured on day 28. The data set is classed as organism-based. The note with it: in vivo, time 4 day; for survival at 96 h: Swiss, read-out: Activity.
A short description of data set [5]: Toxicity in Swiss mouse infected with multidrug-resistant Plasmodium yoelii nigeriensis assessed as animal survival at 24 mg/kg, IM for 4 days measured on day 28. As to conditions: in vivo, time 4 day, read-out: Activity. The data set is classed as organism-based.
Data set [6] can be described thus: Toxicity in Swiss mouse infected with multidrug-resistant Plasmodium yoelii nigeriensis assessed as animal survival at 24 mg/kg, po for 4 days measured on day 28. The data set is classed as organism-based. As to conditions: in vivo, time 4 day; for Activity: po, 24 mg/kg, 96 h.
Data set [7] can be described thus: Toxicity in Swiss mouse infected with multidrug-resistant Plasmodium yoelii nigeriensis assessed as animal dead at 12 mg/kg, po for 4 days measured on day 28. The data set is classed as organism-based. As to conditions: in vivo, 96 h, time 4 day.
In data set [8] the test system is Plasmodium yoelii nigeriensis. Put plainly: Antimalarial activity against multidrug-resistant Plasmodium yoelii nigeriensis infected in Swiss mouse assessed as inhibition of parasitemia at 12 mg/kg, po for 4 days measured on day 4 relative to control. As to conditions: 96 h, time 4 day. The data set is classed as functional.
Data set [9] has as its system Plasmodium yoelii nigeriensis. The data set can be described thus: Antimalarial activity against multidrug-resistant Plasmodium yoelii nigeriensis infected in Swiss mouse assessed as inhibition of parasitemia at 3 mg/kg, IM for 4 days measured on day 4 relative to control. The data set is classed as functional. The note with it: 96 h, time 4 day.
A short description of data set [10]: Toxicity in Swiss mouse infected with multidrug-resistant Plasmodium yoelii nigeriensis assessed as animal survival at 12 mg/kg, po for 4 days measured on day 28. The data set is classed as organism-based. The note with it: in vivo, 96 h, time 4 day.
The subject of data set [11] is Plasmodium yoelii nigeriensis. The data set can be described thus: Antimalarial activity against multidrug-resistant Plasmodium yoelii nigeriensis infected in Swiss mouse assessed as inhibition of parasitemia at 6 mg/kg, po for 4 days measured on day 4 relative to control. The class given is functional. As to conditions: 96 h, time 4 day.
Data set [12] in a line: Toxicity in Swiss mouse infected with multidrug-resistant Plasmodium yoelii nigeriensis assessed as animal dead at 6 mg/kg, po for 4 days measured on day 28. The class given is organism-based. The note with it: in vivo, 96 h, time 4 day.
A short description of data set [13]: Toxicity in Swiss mouse infected with multidrug-resistant Plasmodium yoelii nigeriensis assessed as animal dead at 3 mg/kg, IM for 4 days measured on day 28. The class given is organism-based. The note with it: in vivo, 96 h, time 4 day.
Data set [14] can be described thus: Toxicity in Swiss mouse infected with multidrug-resistant Plasmodium yoelii nigeriensis assessed as animal survival at 6 mg/kg, IM for 4 days measured on day 28. The data set is classed as organism-based. As to conditions: in vivo, time 4 day.
The test system of data set [15] is Plasmodium yoelii nigeriensis. Put plainly: Antimalarial activity against multidrug-resistant Plasmodium yoelii nigeriensis infected in Swiss mouse assessed as inhibition of parasitemia at 6 mg/kg, IM for 4 days measured on day 4 relative to control. The note with it: 96 h, time 4 day. The data set is classed as functional.
Data set [16] can be described thus: Toxicity in Swiss mouse infected with multidrug-resistant Plasmodium yoelii nigeriensis assessed as animal dead at 24 mg/kg, po for 4 days measured on day 28. As to conditions: in vivo, 96 h, time 4 day. The class given is organism-based.
Data set [17] in a line: Toxicity in Swiss mouse infected with multidrug-resistant Plasmodium yoelii nigeriensis assessed as animal survival at 48 mg/kg, IM for 4 days measured on day 28. The class given is organism-based. The note with it: in vivo, 96 h, time 4 day.
Data set [18] is described as follows: Toxicity in Swiss mouse infected with multidrug-resistant Plasmodium yoelii nigeriensis assessed as animal dead at 48 mg/kg, po for 4 days measured on day 28. The class given is organism-based. The note with it: in vivo, 96 h, time 4 day.
The subject of data set [19] is Plasmodium yoelii nigeriensis. Put plainly: Antimalarial activity against multidrug-resistant Plasmodium yoelii nigeriensis infected in Swiss mouse assessed as inhibition of parasitemia at 48 mg/kg, po for 4 days measured on day 4 relative to control. The data set is classed as functional. The note with it: 96 h, time 4 day.
The test system of data set [20] is Plasmodium yoelii nigeriensis. Put plainly: Antimalarial activity against multidrug-resistant Plasmodium yoelii nigeriensis infected in Swiss mouse assessed as inhibition of parasitemia at 24 mg/kg, IM for 4 days measured on day 4 relative to control. The class given is functional. The note with it: 96 h, time 4 day.
The subject of data set [21] is Plasmodium yoelii nigeriensis. The data set can be described thus: Antimalarial activity against multidrug-resistant Plasmodium yoelii nigeriensis infected in Swiss mouse assessed as inhibition of parasitemia at 48 mg/kg, IM for 4 days measured on day 4 relative to control. The class given is functional. As to conditions: 96 h, time 4 day.

With `C[C@@H]1CC[C@H]2[C@@H](C)C(=O)N(N)[C@@H]3O[C@@]4(C)CC[C@@H]1[C@@]23OO4`, the inhibition in vivo (commonly how much of the control response was suppressed) at 12 mg/kg in [1] was 100%. For the same molecule, the Activity result in data set [2] was “Toxic”. For the same molecule, in [3], the inhibition in vivo at 24 mg/kg turned out to be 100%.
`C[C@@H]1CC[C@H]2[C@@H](C)C(=O)N(/N=C/c3ccccc3O)[C@@H]3O[C@@]4(C)CC[C@@H]1[C@@]23OO4`: the survival at 96 h in data set [4] is 40%. For the same molecule, the inhibition in vivo at 12 mg/kg in data set [1] was determined as 100%. Besides, the inhibition in vivo at 24 mg/kg in data set [3] stood at 100%.
On to `C[C@@H]1CC[C@H]2[C@@H](C)C(=O)N(N=C3C4CC5CC(C4)CC3C5)[C@@H]3O[C@@]4(C)CC[C@@H]1[C@@]23OO4`, for which the survival at 96 h in data set [4] worked out at 20%. Further, in [1], the inhibition in vivo at 12 mg/kg worked out at 100%. In addition, the inhibition in vivo at 24 mg/kg in data set [3] came to 100%.
Consider `C[C@@H]1CC[C@H]2[C@@H](C)C(=O)N(/N=C/c3ccc[nH]3)[C@@H]3O[C@@]4(C)CC[C@@H]1[C@@]23OO4`, for which, in [1], the inhibition in vivo at 12 mg/kg stood at 100%. Moreover, the survival at 96 h in [5] turned out to be 40%. In [3], the inhibition in vivo at 24 mg/kg was 100%.
In the case of `CC(C)=NN1C(=O)[C@H](C)[C@@H]2CC[C@@H](C)[C@@H]3CC[C@@]4(C)OO[C@]32[C@H]1O4`, the inhibition in vivo at 12 mg/kg in [1] is 100%. The inhibition in vivo at 24 mg/kg in data set [3] came to 100%.
Consider `C[C@@H]1CC[C@H]2[C@@H](C)C(=O)N(/N=C/c3ccc(Br)cc3)[C@@H]3O[C@@]4(C)CC[C@@H]1[C@@]23OO4`, for which, in data set [4], the survival at 96 h was 60%. The inhibition in vivo at 12 mg/kg in data set [1] turned out to be 100%. Besides, the inhibition in vivo at 24 mg/kg in [3] turned out to be 100%.
For `C[C@@H]1CC[C@H]2[C@@H](C)C(=O)N(N=C3CCCCC3)[C@@H]3O[C@@]4(C)CC[C@@H]1[C@@]23OO4`, the survival at 96 h in data set [4] came to 40%. Also, the inhibition in vivo at 12 mg/kg in data set [1] came to 100%. The inhibition in vivo at 24 mg/kg in [3] stood at 100%.
On to `C[C@@H]1CC[C@H]2[C@@H](C)C(=O)N(/N=C/c3ccco3)[C@@H]3O[C@@]4(C)CC[C@@H]1[C@@]23OO4`, for which the survival at 96 h in [6] (Swiss, read-out: Activity) is 80%; in [4], 80%. Also, the inhibition in vivo at 12 mg/kg in [1] was determined as 100%. The inhibition in vivo at 24 mg/kg in data set [3] was 100%.
`COc1ccc(/C=N/N2C(=O)[C@H](C)[C@@H]3CC[C@@H](C)[C@@H]4CC[C@@]5(C)OO[C@]43[C@H]2O5)cc1`: the results for the Activity entry in data set [6] and in data set [7] were “Non-Toxic” and “Toxic”, respectively. Further, the survival at 96 h in data set [4] came to 60%. Moreover, the inhibition in vivo at 12 mg/kg in [1] and in [8] was 100% in each case. For the same molecule, the inhibition in vivo at 24 mg/kg in data set [3] turned out to be 100%.
For the molecule `C[C@@H]1CC[C@H]2[C@@H](C)C(=O)N(/N=C/c3cccs3)[C@@H]3O[C@@]4(C)CC[C@@H]1[C@@]23OO4`, the inhibition in vivo at 12 mg/kg in data set [1] and in data set [8] was 100% throughout. For the same molecule, in data set [3], the inhibition in vivo at 24 mg/kg turned out to be 100%.
For `C[C@@H]1CC[C@H]2[C@@H](C)C(=O)N(N=C3c4ccccc4-c4ccccc43)[C@@H]3O[C@@]4(C)CC[C@@H]1[C@@]23OO4`, the inhibition in vivo at 3 mg/kg in data set [9] was determined as 38%. Further, the Activity result in [6] is “Non-Toxic”; in data set [10] it was “Non-Toxic”; in data set [4] (im, 12 mg/kg, 96 h) it was “Non-Toxic”; in data set [12], “Toxic”; in data set [13], “Toxic”; in data set [14] (im, 6 mg/kg, 96 h) it was “Non-Toxic”. Further, in data set [11], the inhibition in vivo at 6 mg/kg is 98%. Also, the inhibition in vivo at 12 mg/kg in data set [1] and in [8] was 100% throughout. Moreover, the inhibition in vivo at 24 mg/kg in [3] was found to be 100%.
Consider `C[C@@H]1CC[C@H]2[C@@H](C)C(=O)N(/N=C/c3cccc([N+](=O)[O-])c3)[C@@H]3O[C@@]4(C)CC[C@@H]1[C@@]23OO4`, for which the inhibition in vivo at 12 mg/kg in data set [1] is 100%. The Activity entry in [2] is “Toxic”. Moreover, the inhibition in vivo at 24 mg/kg in data set [3] worked out at 100%.
With `C[C@@H]1CC[C@H]2[C@@H](C)C(=O)N(N=C3CCCC3)[C@@H]3O[C@@]4(C)CC[C@@H]1[C@@]23OO4`, the Activity result was “Non-Toxic” in data set [6] and “Toxic” in [16]. The survival at 96 h in data set [14] (Swiss, read-out: Activity) is 80%. For the same molecule, in data set [1], the inhibition in vivo at 12 mg/kg turned out to be 100%. In addition, the inhibition in vivo at 6 mg/kg in data set [15] is 100%. The inhibition in vivo at 24 mg/kg in data set [3] turned out to be 100%.
Turning to `C[C@@H]1CC[C@H]2[C@@H](C)C(=O)O[C@@H]3O[C@@]4(C)CC[C@@H]1[C@]32OO4` [ARTEMISININ], the Activity result is listed as “Non-Toxic” in data set [17] and “Toxic” in data set [18]. For the same molecule, the inhibition in vivo at 48 mg/kg in data set [19] and in data set [21] was 100% each time. Further, the inhibition in vivo at 24 mg/kg in data set [20] stood at 100%.
